The target of one test is BRD4-BD1 (Homo sapiens (Human), UniProt O60885). Nature of the test: BRD4 AlphaScreen Assay (Example A2), BRD4-BD1. It is filed as binding. Put shortly: (§1)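 Displacement of 50 nM biotinylated tetra-acetylated histone H4 peptide from BRD4 BD1 or BD2 (<1 nM) in Tris-HCl pH 7.5 buffer with DTT. Inhibitors serially diluted in DMSO, added first, then incubated 75 min in the dark at room temperature before AlphaScreen read. IC50 fitted from percent control activity versus log concentration.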
(Bead proximity is the source of the signal in Alpha formats.)

In a further test the target is BRD4-BD2 (Homo sapiens (Human), UniProt O60885). Nature of the test: BRD4 AlphaScreen Assay (Example A2), BRD4-BD2. In kind it is binding. Put shortly:
as §1

[1] abbreviates: Assay A2, AlphaScreen, BRD4-BD1, read-out: BRD4 BD-1 enzyme IC50.
The mark [2] stands for this setting: Assay A2, AlphaScreen, BRD4-BD2, read-out: BRD4 BD-2 enzyme IC50.

SMILES strings stand for the structures. Structures can show the parent of a compound that is named as a salt. Where two headings read alike, the source gives them in different places.

The IC50 is the concentration that inhibits the measured activity by half. As to `Cc1noc(C)c1-c1ccc2[nH]c(=O)n3c2c1OC(C(=O)NCCO)C3c1ccccc1` (single isomer, unassigned) [Example 48B, 7-(3,5-Dimethylisoxazol-4-yl)-N-(2-hydroxyethyl)-2-oxo-4-phenyl-1,2,4,5-tetrahydroimidazo[1,5,4-de][1,4]benzoxazine-5-carboxamide], the IC50 at BRD4-BD1 (setting [1]) is 100 to 1000 nM; on BRD4-BD2 (setting [2]), under 100 nM.
For the compound `Cc1noc(C)c1-c1ccc2nc(N3CC[C@@H](N(C)C(=O)CC#N)C3)n3c2c1OC[C@@H]3c1ccccn1` [Example 152, 2-Cyano-N-{(3R)-1-[(4S)-7-(3,5-dimethylisoxazol-4-yl)-4-pyridin-2-yl-4,5-dihydroimidazo[1,5,4-de][1,4]benzoxazin-2-yl]pyrrolidin-3-yl}-N-methylacetamide], the IC50 at BRD4-BD1 (setting [1]) and at BRD4-BD2 (setting [2]) was under 100 nM each time.
Consider `Cc1noc(C)c1-c1cc(Cl)c2[nH]c(=O)n3c2c1OCC3c1ccccn1` (single isomer, unassigned) [Example 266A, 9-chloro-7-(3,5-dimethylisoxazol-4-yl)-4-pyridin-2-yl-4,5-dihydroimidazo[1,5,4-de][1,4]benzoxazin-2(1H)-one], for which the IC50 on BRD4-BD1 (setting [1]) is 100 to 1000 nM; on BRD4-BD2 (setting [2]), under 100 nM.
The matching figures for `Cc1noc(C)c1-c1ccc2[nH]c(=O)n3c2c1OC(CO)C3c1ccccn1` (single isomer, unassigned) [Example 62B, 7-(3,5-Dimethylisoxazol-4-yl)-5-(hydroxymethyl)-4-pyridin-2-yl-4,5-dihydroimidazo[1,5,4-de][1,4]benzoxazin-2(1H)-one]: under 100 nM and under 100 nM.
On the same counts, the results for `Cc1noc(C)c1-c1ccc2[nH]c(=O)n3c2c1CCC3c1ccccn1` (centres unmarked) [Example 123, 7-(3,5-Dimethylisoxazol-4-yl)-4-pyridin-2-yl-5,6-dihydro-4H-imidazo[4,5,1-ij]quinolin-2(1H)-one trifluoroacetate] are 100 to 1000 nM and under 100 nM.
With `Cc1noc(C)c1-c1cc(-c2cn[nH]c2C)c2[nH]c(=O)n3c2c1OCC3c1ccccn1` (centres unmarked) [Example 257, 7-(3,5-dimethylisoxazol-4-yl)-9-(3-methyl-1H-pyrazol-4-yl)-4-pyridin-2-yl-4,5-dihydroimidazo[1,5,4-de][1,4]benzoxazin-2(1H)-one], the IC50 was 100 to 1000 nM at BRD4-BD1 (setting [1]) and under 100 nM on BRD4-BD2 (setting [2]).
Consider `CC(=O)N1CCCC(c2nc3ccc(-c4c(C)noc4C)c4c3n2[C@@H](c2ccccn2)CO4)C1` (mixture of isomers) [Example 117, (4S)-2-(1-acetylpiperidin-3-yl)-7-(3,5-dimethylisoxazol-4-yl)-4-pyridin-2-yl-4,5-dihydroimidazo[1,5,4-de][1,4]benzoxazine (mixture of diastereomers)], for which the IC50 at BRD4-BD1 (setting [1]) and on BRD4-BD2 (setting [2]) was under 100 nM throughout.
Consider `COc1ccc(CNCc2cc(-c3c(C)noc3C)c3c4c2[nH]c(=O)n4C(c2ccccn2)CO3)cc1` (centres unmarked) [Example 263, 7-(3,5-dimethylisoxazol-4-yl)-9-{[(4-methoxybenzyl)amino]methyl}-4-pyridin-2-yl-4,5-dihydroimidazo[1,5,4-de][1,4]benzoxazin-2(1H)-one], for which the IC50 on BRD4-BD1 (setting [1]) was 100 to 1000 nM; on BRD4-BD2 (setting [2]) it was under 100 nM.
The matching figures for `Cc1noc(C)c1-c1ccc2[nH]c(=O)n3c2c1CCC3c1ccccc1` (centres unmarked) [Example 120, 7-(3,5-Dimethylisoxazol-4-yl)-4-phenyl-5,6-dihydro-4H-imidazo[4,5,1-ij]quinolin-2(1H)-one]: under 100 nM and under 100 nM.
The matching figures for `Cc1noc(C)c1-c1ccc2nc(C3=CCCN(C(=O)OC(C)(C)C)C3)n3c2c1OC[C@@H]3c1ccccn1` [Example 99, tert-Butyl 5-[(4S)-7-(3,5-dimethylisoxazol-4-yl)-4-pyridin-2-yl-4,5-dihydroimidazo[1,5,4-de][1,4]benzoxazin-2-yl]-3,6-dihydropyridine-1(2H)-carboxylate]: under 100 nM and under 100 nM.
Take `Cc1noc(C)c1-c1ccc2nc(N3CC(O)C3)n3c2c1OCC3c1cccnc1` (single isomer, unassigned) [Example 160D, 1-[7-(3,5-Dimethylisoxazol-4-yl)-4-pyridin-3-yl-4,5-dihydroimidazo[1,5,4-de][1,4]benzoxazin-2-yl]azetidin-3-ol]: the IC50 at BRD4-BD1 (setting [1]) and at BRD4-BD2 (setting [2]) was 1000 to 10000 nM each time.
With `Cc1noc(C)c1-c1cc(Br)c2[nH]c(=O)n3c2c1OCC3c1ccccc1` (centres unmarked) [Example 45, 9-Bromo-7-(3,5-Dimethylisoxazol-4-yl)-4-phenyl-4,5-dihydroimidazo[1,5,4-de][1,4]benzoxazin-2(1H)-one], the IC50 on BRD4-BD1 (setting [1]) and at BRD4-BD2 (setting [2]) was under 100 nM throughout.
`Cc1noc(C)c1-c1ccc2[nH]c(=O)n3c2c1OCC3(CN)c1ccccn1` (centres unmarked) [Example 73, 4-(Aminomethyl)-7-(3,5-dimethylisoxazol-4-yl)-4-pyridin-2-yl-4,5-dihydroimidazo[1,5,4-de][1,4]benzoxazin-2(1H)-one bis(2,2,2-trifluoroacetate)]: the IC50 on BRD4-BD1 (setting [1]) is 100 to 1000 nM; on BRD4-BD2 (setting [2]), under 100 nM.
The matching figures for `Cc1noc(C)c1-c1ccc2[nH]c(=O)n3c2c1OC(C(=O)NCCO)C3c1ccccc1` (single isomer, unassigned) [Example 48A, 7-(3,5-Dimethylisoxazol-4-yl)-N-(2-hydroxyethyl)-2-oxo-4-phenyl-1,2,4,5-tetrahydroimidazo[1,5,4-de][1,4]benzoxazine-5-carboxamide]: 100 to 1000 nM and under 100 nM.
The matching figures for `Cc1noc(C)c1-c1ccc2nc(N3CC(NC(=O)OC(C)(C)C)C3)n3c2c1OC[C@@H]3c1ccccn1` [Example 196, tert-butyl {1-[(4S)-7-(3,5-dimethylisoxazol-4-yl)-4-pyridin-2-yl-4,5-dihydroimidazo[1,5,4-de][1,4]benzoxazin-2-yl]azetidin-3-yl}carbamate]: under 100 nM and under 100 nM.
The matching figures for `Cc1noc(C)c1-c1cc(Br)c2[nH]c(=O)n3c2c1OCC3c1ccccn1` (single isomer, unassigned) [Example 267A, 9-bromo-7-(3,5-dimethylisoxazol-4-yl)-4-pyridin-2-yl-4,5-dihydroimidazo[1,5,4-de][1,4]benzoxazin-2(1H)-one]: 1000 to 10000 nM and 1000 to 10000 nM.
For `Cc1noc(C)c1-c1cc(-c2ccnn2C)c2[nH]c(=O)n3c2c1OC[C@@H]3c1ccccn1` [Example 85, (4S)-7-(3,5-dimethylisoxazol-4-yl)-9-(1-methyl-1H-pyrazol-5-yl)-4-pyridin-2-yl-4,5-dihydroimidazo[1,5,4-de][1,4]benzoxazin-2(1H)-one 2,2,2-trifluoroacetate], the IC50 at BRD4-BD1 (setting [1]) is 1000 to 10000 nM; on BRD4-BD2 (setting [2]), 100 to 1000 nM.
With `Cc1noc(C)c1-c1ccc2nc(N3CC(NC(=O)C(C)C)C3)n3c2c1OC[C@@H]3c1ccccn1` [Example 233, N-{1-[(4S)-7-(3,5-dimethylisoxazol-4-yl)-4-pyridin-2-yl-4,5-dihydroimidazo[1,5,4-de][1,4]benzoxazin-2-yl]azetidin-3-yl}-2-methylpropanamide], the IC50 at BRD4-BD1 (setting [1]) and at BRD4-BD2 (setting [2]) was under 100 nM in each case.
`Cc1noc(C)c1-c1ccc2nc(N3CC(O)C3)n3c2c1OCC3c1cccnc1` (single isomer, unassigned) [Example 160A, 1-[7-(3,5-Dimethylisoxazol-4-yl)-4-pyridin-3-yl-4,5-dihydroimidazo[1,5,4-de][1,4]benzoxazin-2-yl]azetidin-3-ol]: the results for the IC50 at BRD4-BD1 (setting [1]) and at BRD4-BD2 (setting [2]) were 1000 to 10000 nM and 100 to 1000 nM, respectively.
On to `Cc1noc(C)c1-c1ccc2[nH]c(=S)n3c2c1OCC3c1ccccn1` (centres unmarked) [Example 255, 7-(3,5-Dimethylisoxazol-4-yl)-4-pyridin-2-yl-4,5-dihydroimidazo[1,5,4-de][1,4]benzoxazine-2(1H)-thione], for which the IC50 on BRD4-BD1 (setting [1]) and on BRD4-BD2 (setting [2]) was under 100 nM each time.
Take `Cc1noc(C)c1-c1cc(C2=CCNCC2)c2[nH]c(=O)n3c2c1OC[C@@H]3c1ccccn1` [Example 87, (4S)-7-(3,5-dimethylisoxazol-4-yl)-4-pyridin-2-yl-9-(1,2,3,6-tetrahydropyridin-4-yl)-4,5-dihydroimidazo[1,5,4-de][1,4]benzoxazin-2(1H)-one bis(2,2,2-trifluoroacetate)]: the 50% inhibitory concentration (IC50) against BRD4-BD1 was 100 to 1000 nM; at BRD4-BD2 (read-out: BRD4 BD-2 enzyme IC50), under 100 nM.
Turning to `Cc1noc(C)c1-c1ccc2[nH]c(=O)n3c2c1OCC3C1CCCCN1` (single isomer, unassigned) [Example 63A, 7-(3,5-Dimethylisoxazol-4-yl)-4-piperidin-2-yl-4,5-dihydroimidazo[1,5,4-de][1,4]benzoxazin-2(1H)-one 2,2,2-trifluoroacetate], the IC50 on BRD4-BD1 and against BRD4-BD2 was 100 to 1000 nM in each case.
As to `CNC(=O)c1ncccc1C1COc2c(-c3c(C)noc3C)ccc3[nH]c(=O)n1c23` (centres unmarked) [Example 128, 3-[7-(3,5-Dimethylisoxazol-4-yl)-2-oxo-1,2,4,5-tetrahydroimidazo[1,5,4-de][1,4]benzoxazin-4-yl]-N-methylpyridine-2-carboxamide], the IC50 at BRD4-BD1 (setting [1]) and at BRD4-BD2 (setting [2]) was under 100 nM throughout.
On to `Cc1noc(C)c1-c1cc(CN)c2[nH]c(=O)n3c2c1OC[C@@H]3c1ccccn1` [Example 137, (4S)-9-(Aminomethyl)-7-(3,5-dimethylisoxazol-4-yl)-4-pyridin-2-yl-4,5-dihydroimidazo[1,5,4-de][1,4]benzoxazin-2(1H)-one bis(trifluoroacetate)], for which the IC50 is 1000 to 10000 nM on BRD4-BD1 (setting [1]) and under 100 nM at BRD4-BD2 (setting [2]).
Consider `Cc1noc(C)c1-c1cc(CNC(C)C)c2[nH]c(=O)n3c2c1OCC3c1ccccn1` (centres unmarked) [Example 253, 7-(3,5-Dimethylisoxazol-4-yl)-9-[(isopropylamino)methyl]-4-pyridin-2-yl-4,5-dihydroimidazo[1,5,4-de][1,4]benzoxazin-2(1H)-one], for which the IC50 at BRD4-BD1 (setting [1]) and on BRD4-BD2 (setting [2]) was 100 to 1000 nM each time.

The values above are taken from patent US9624241B2 (Incyte Corporation, priority 2013, dated 2017).
